Legend:
Palbociclib = compound: CC(=O)c1c(C)c2cnc(Nc3ccc(N4CCNCC4)cn3)nc2n(C2CCCC2)c1=O [Palbociclib]; details: max 10 µM
Method in brief: (§1)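 Cancer cell lines were seeded into 1536-well plates in 7.5 μl medium (DMEM/F12 or RPMI, 10% FBS), held 24 hours at 37°C and 5% CO2, and dosed for 72 hours with final DMSO typically 0.2%. Luminescence from CellTiter-Glo 2.0, scaled between blank-well and DMSO-well means, served as viability. The single-agent IC50 was obtained from dose-response fits with a non-linear mixed effects model, each fit being a two-parameter logistic curve.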

Taselisib = compound: Cc1nc(-c2cn3c(n2)-c2ccc(-c4cnn(C(C)(C)C(N)=O)c4)cc2OCC3)n(C(C)C)n1 [Taselisib]; details: max 10 µM
Method in brief: as §1

Prexasertib = compound: COc1cccc(OCCCN)c1-c1cc(Nc2cnc(C#N)cn2)n[nH]1 [Prexasertib]; details: max 1 µM
Method in brief: as §1

AZD1390 = compound: CC(C)n1c(=O)n(C)c2cnc3cc(F)c(-c4ccc(OCCCN5CCCCC5)nc4)cc3c21 [AZD1390]; details: max 0.3 µM
Method in brief: as §1

Crizotinib = compound: C[C@@H](Oc1cc(-c2cnn(C3CCNCC3)c2)cnc1N)c1c(Cl)ccc(F)c1Cl [Crizotinib]; details: max 10 µM
Method in brief: as §1

Paclitaxel = compound: CC(=O)O[C@H]1C(=O)[C@@]2(C)[C@H]([C@H](OC(=O)c3ccccc3)[C@]3(O)C[C@H](OC(=O)[C@H](O)[C@@H](NC(=O)c4ccccc4)c4ccccc4)C(C)=C1C3(C)C)[C@]1(OC(C)=O)CO[C@@H]1C[C@@H]2O [Paclitaxel]; details: max 3 µM
Method in brief: as §1

Alisertib = compound: COc1cc(Nc2ncc3c(n2)-c2ccc(Cl)cc2C(c2c(F)cccc2OC)=NC3)ccc1C(=O)O [Alisertib]; details: max 10 µM
Method in brief: as §1

Doxorubicin = compound: COc1cccc2c1C(=O)c1c(O)c3c(c(O)c1C2=O)C[C@@](O)(C(=O)CO)C[C@@H]3O[C@H]1C[C@H](N)[C@H](O)[C@H](C)O1 [Doxorubicin]; details: max 1 µM
Method in brief: as §1

Carboplatin = compound: C1CC(C1)(C(=O)[O-])C(=O)[O-].N.N.[Pt+2] [Carboplatin]; details: max 10 µM
Method in brief: as §1

Venetoclax = compound: CC1(C)CCC(CN2CCN(c3ccc(C(=O)NS(=O)(=O)c4ccc(NCC5CCOCC5)c([N+](=O)[O-])c4)c(Oc4cnc5[nH]ccc5c4)c3)CC2)=C(c2ccc(Cl)cc2)C1 [Venetoclax]; details: max 1 µM
Method in brief: as §1

Gemcitabine = compound: Nc1ccn([C@@H]2O[C@H](CO)[C@@H](O)C2(F)F)c(=O)n1 [Gemcitabine]; details: max 0.3 µM
Method in brief: as §1

SN-38 = compound: CCc1c2c(nc3ccc(O)cc13)-c1cc3c(c(=O)n1C2)COC(=O)[C@]3(O)CC [SN-38]; details: max 0.3 µM
Method in brief: as §1

SG3199 = compound: CC1=CN2[C@@H](C1)C=NC3=CC(=C(C=C3C2=O)OC)OCCCCCOC4=C(C=C5C(=C4)N=C[C@@H]6CC(=CN6C5=O)C)OC [SG3199]; details: max 0.001 µM
Method in brief: as §1

Gefitinib = compound: COc1cc2ncnc(Nc3ccc(F)c(Cl)c3)c2cc1OCCCN1CCOCC1 [Gefitinib]; details: max 10 µM
Method in brief: as §1

AZD6738 = compound: C[C@@H]1COCCN1C2=NC(=NC(=C2)C3(CC3)[S@](=N)(=O)C)C4=C5C=CNC5=NC=C4 [AZD6738]; details: max 10 µM
Method in brief: as §1

5-Fluorouracil = compound: O=c1[nH]cc(F)c(=O)[nH]1 [5-Fluorouracil]; details: max 20 µM
Method in brief: as §1

AZD5363 = compound: C1CN(CCC1(C(=O)N[C@@H](CCO)C2=CC=C(C=C2)Cl)N)C3=NC=NC4=C3C=CN4 [AZD5363]; details: max 10 µM
Method in brief: as §1

AZD2811 = compound: CCN(CCO)CCCOc1ccc2c(Nc3cc(CC(=O)Nc4cccc(F)c4)[nH]n3)ncnc2c1 [AZD2811]; details: max 1 µM
Method in brief: as §1

AZD1775 = compound: C=CCn1c(=O)c2cnc(Nc3ccc(N4CCN(C)CC4)cc3)nc2n1-c1cccc(C(C)(C)O)n1 [AZD1775]; details: max 3 µM
Method in brief: as §1

[1] = compound: O=C(Nc1ccc2[nH]nc(-c3ccncc3)c2c1)[C@@H]1CCN(CC(=O)N2CCN(c3ccc(-c4ncccn4)cc3)CC2)C1; details: max 5 µM
Method in brief: as §1

AZD4320 = compound: CN(CC[C@H](CSC1=CC=CC=C1)NC2=C(C=C(C=C2)S(=O)(=O)NC(=O)C3=CC=C(C=C3)N4CCC(CC4)[C@H](C5=CC=CC=C5C6=CC=C(C=C6)Cl)O)S(=O)(=O)C(F)(F)F)CCO [AZD4320]; details: max 1 µM
Method in brief: as §1

AZD5991 = compound: Cc1c2c(nn1C)CSCc1cc(n(C)n1)CSc1cc(c3ccccc3c1)OCCCc1c(C(=O)O)n(C)c3c-2c(Cl)ccc13 [AZD5991]; details: max 1 µM
Method in brief: as §1

SRA737 = compound: N#Cc1cnc(Nc2cc(NC[C@H]3CNCCO3)c(C(F)(F)F)cn2)cn1 [SRA737]; details: max 10 µM
Method in brief: as §1

AZD0156 = compound: CN(C)CCCOc1ccc(-c2ccc3ncc4c(c3c2)n(C2CCOCC2)c(=O)n4C)cn1 [AZD0156]; details: max 3 µM
Method in brief: as §1

Lapatinib = compound: CS(=O)(=O)CCNCc1ccc(-c2ccc3ncnc(Nc4ccc(OCc5cccc(F)c5)c(Cl)c4)c3c2)o1 [Lapatinib]; details: max 10 µM
Method in brief: as §1

Etoposide = compound: COc1cc([C@@H]2c3cc4c(cc3[C@@H](O[C@@H]3O[C@@H]5CO[C@@H](C)O[C@H]5[C@H](O)[C@H]3O)[C@H]3COC(=O)[C@H]23)OCO4)cc(OC)c1O [Etoposide]; details: max 10 µM
Method in brief: as §1

Selumetinib = compound: Cn1cnc2c(F)c(Nc3ccc(Br)cc3Cl)c(C(=O)NOCCO)cc21 [Selumetinib]; details: max 10 µM
Method in brief: as §1

Trametinib = compound: CC(=O)Nc1cccc(-n2c(=O)n(C3CC3)c(=O)c3c(Nc4ccc(I)cc4F)n(C)c(=O)c(C)c32)c1 [Trametinib]; details: max 1 µM
Method in brief: as §1

MK-2206 = compound: NC1(c2ccc(-c3nc4ccn5c(=O)[nH]nc5c4cc3-c3ccccc3)cc2)CCC1 [MK-2206]; details: max 10 µM
Method in brief: as §1

AZD8186 = compound: C[C@@H](Nc1cc(F)cc(F)c1)c1cc(C(=O)N(C)C)cc2c(=O)cc(N3CCOCC3)oc12 [AZD8186]; details: max 10 µM
Method in brief: as §1

Savolitinib = compound: C[C@@H](c1ccc2nccn2c1)n1nnc2ncc(-c3cnn(C)c3)nc21 [Savolitinib]; details: max 1 µM
Method in brief: as §1

AZD5153 = compound: COc1nnc2ccc(N3CCC(c4ccc(OCCN5CCN(C)C(=O)[C@H]5C)cc4)CC3)nn12 [AZD5153]; details: max 1 µM
Method in brief: as §1

Olaparib = compound: O=C(c1cc(Cc2n[nH]c(=O)c3ccccc23)ccc1F)N1CCN(C(=O)C2CC2)CC1 [Olaparib]; details: max 10 µM
Method in brief: as §1

Dasatinib = compound: CC1=C(C(=CC=C1)Cl)NC(=O)C2=CN=C(S2)NC3=CC(=NC(=N3)C)N4CCN(CC4)CCO [Dasatinib]; details: max 2 µM
Method in brief: as §1

AZD7648 = compound: Cc1cc2ncnn2cc1Nc1ncc2c(n1)n(C1CCOCC1)c(=O)n2C [AZD7648]; details: max 10 µM
Method in brief: as §1

| Cell Line | IC50, cell viability 72 h (Palbociclib) | IC50, cell viability 72 h (Taselisib) | IC50, cell viability 72 h (Prexasertib) | IC50, cell viability 72 h (AZD1390) | IC50, cell viability 72 h (Crizotinib) | IC50, cell viability 72 h (Paclitaxel) | IC50, cell viability 72 h (Alisertib) | IC50, cell viability 72 h (Doxorubicin) | IC50, cell viability 72 h (Carboplatin) | IC50, cell viability 72 h (Venetoclax) | IC50, cell viability 72 h (Gemcitabine) | IC50, cell viability 72 h (SN-38) | IC50, cell viability 72 h (SG3199) | IC50, cell viability 72 h (Gefitinib) | IC50, cell viability 72 h (AZD6738) | IC50, cell viability 72 h (5-Fluorouracil) | IC50, cell viability 72 h (AZD5363) | IC50, cell viability 72 h (AZD2811) | IC50, cell viability 72 h (AZD1775) | IC50, cell viability 72 h [1] | IC50, cell viability 72 h (AZD4320) | IC50, cell viability 72 h (AZD5991) | IC50, cell viability 72 h (SRA737) | IC50, cell viability 72 h (AZD0156) | IC50, cell viability 72 h (Lapatinib) | IC50, cell viability 72 h (Etoposide) | IC50, cell viability 72 h (Selumetinib) | IC50, cell viability 72 h (Trametinib) | IC50, cell viability 72 h (MK-2206) | IC50, cell viability 72 h (AZD8186) | IC50, cell viability 72 h (Savolitinib) | IC50, cell viability 72 h (AZD5153) | IC50, cell viability 72 h (Olaparib) | IC50, cell viability 72 h (Dasatinib) | IC50, cell viability 72 h (AZD7648) |
| --- | --- | --- | --- | --- | --- | --- | --- | --- | --- | --- | --- | --- | --- | --- | --- | --- | --- | --- | --- | --- | --- | --- | --- | --- | --- | --- | --- | --- | --- | --- | --- | --- | --- | --- | --- |
| EW-24 (Ewing's Sarcoma) | > 10000 nM | 2450 nM | 120 nM | > 300 nM | > 10000 nM | 255 nM | > 10000 nM | > 1000 nM | > 10000 nM | > 1000 nM | 31 nM | 12.9 nM | > 1 nM | > 10000 nM | > 10000 nM | > 20000 nM | > 10000 nM | > 1000 nM | > 3000 nM | > 5000 nM | 204 nM | > 1000 nM | 8420 nM | > 3000 nM | > 10000 nM | 5330 nM | > 10000 nM | > 1000 nM | > 10000 nM | > 10000 nM | > 1000 nM | > 1000 nM | > 10000 nM | > 2000 nM | > 10000 nM |
| Hs-766T (Pancreatic Carcinoma) | > 10000 nM | > 10000 nM | 163 nM | > 300 nM | > 10000 nM | > 3000 nM | > 10000 nM | > 1000 nM | > 10000 nM | > 1000 nM | > 300 nM | > 300 nM | > 1 nM | > 10000 nM | > 10000 nM | > 20000 nM | > 10000 nM | > 1000 nM | > 3000 nM | > 5000 nM | > 1000 nM | > 1000 nM | > 10000 nM | > 3000 nM | > 10000 nM | > 10000 nM | 5430 nM | 113 nM | > 10000 nM | > 10000 nM | > 1000 nM | > 1000 nM | > 10000 nM | > 2000 nM | > 10000 nM |
| KARPAS-299 (T-Cell Non-Hodgkin's Lymphoma) | > 10000 nM | > 10000 nM | 5.15 nM | > 300 nM | 846 nM | 30.6 nM | > 10000 nM | 523 nM | > 10000 nM | 708 nM | 26.6 nM | 35.7 nM | > 1 nM | > 10000 nM | 698 nM | 4460 nM | > 10000 nM | > 1000 nM | 459 nM | > 5000 nM | > 1000 nM | 326 nM | 1130 nM | > 3000 nM | > 10000 nM | 3370 nM | > 10000 nM | > 1000 nM | > 10000 nM | > 10000 nM | > 1000 nM | 115 nM | > 10000 nM | > 2000 nM | > 10000 nM |
| KYSE-450 (Esophageal Squamous Cell Carcinoma) | > 10000 nM | 7520 nM | 226 nM | > 300 nM | > 10000 nM | 67.7 nM | > 10000 nM | > 1000 nM | > 10000 nM | > 1000 nM | > 300 nM | > 300 nM | > 1 nM | > 10000 nM | > 10000 nM | > 20000 nM | > 10000 nM | > 1000 nM | 614 nM | > 5000 nM | > 1000 nM | > 1000 nM | > 10000 nM | > 3000 nM | > 10000 nM | > 10000 nM | > 10000 nM | > 1000 nM | > 10000 nM | > 10000 nM | > 1000 nM | > 1000 nM | > 10000 nM | > 2000 nM | > 10000 nM |
| LU-65 (Non-Small Cell Lung Carcinoma) | > 10000 nM | 3010 nM | 89.6 nM | > 300 nM | 7510 nM | 32.1 nM | > 10000 nM | 341 nM | > 10000 nM | > 1000 nM | > 300 nM | 49.1 nM | > 1 nM | > 10000 nM | 3970 nM | > 20000 nM | > 10000 nM | > 1000 nM | 770 nM | 350 nM | > 1000 nM | > 1000 nM | 4300 nM | > 3000 nM | > 10000 nM | > 10000 nM | 1650 nM | 52.9 nM | > 10000 nM | > 10000 nM | > 1000 nM | > 1000 nM | > 10000 nM | > 2000 nM | > 10000 nM |
